PMC7806712, “A novel bifunctional aldehyde/alcohol dehydrogenase catalyzing reduction of acetyl-CoA to ethanol at temperatures up to 95 °C” (Scientific Reports, 2021)

T1: Aldh (CTN_1548) (Thermotoga neapolitana, UniProt B9K9U1)
T1 construct: full-length from genomic DNA, vector-encoded N-terminal residues, C-terminal His-tag kept; E. coli JM109, pHsh; heat treatment, Ni column
T1 sequence (B9K9U1 2-472): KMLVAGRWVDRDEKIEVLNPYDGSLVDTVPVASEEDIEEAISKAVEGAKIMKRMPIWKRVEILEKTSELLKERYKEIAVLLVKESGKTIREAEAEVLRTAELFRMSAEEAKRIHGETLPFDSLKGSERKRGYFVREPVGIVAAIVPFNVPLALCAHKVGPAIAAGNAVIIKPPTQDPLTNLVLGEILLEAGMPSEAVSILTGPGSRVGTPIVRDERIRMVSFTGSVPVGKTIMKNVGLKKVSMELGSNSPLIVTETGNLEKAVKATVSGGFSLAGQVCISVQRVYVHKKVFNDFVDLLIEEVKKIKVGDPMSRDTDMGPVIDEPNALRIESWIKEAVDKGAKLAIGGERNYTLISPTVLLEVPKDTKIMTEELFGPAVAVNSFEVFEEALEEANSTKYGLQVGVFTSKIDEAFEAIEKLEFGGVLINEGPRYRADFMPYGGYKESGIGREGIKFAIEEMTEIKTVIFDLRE

B1: Fe-AAdh (CTN_0580) (Thermotoga neapolitana DSM 4359) (protein)
chain: FKISCYLPTEIIFRVGAVDELEERAKKLGKKALIVTGRSSTKKTGLLQRVQDLLKKAGVESIVFDKIVPNPISDHVDEAAEIVRKEKIDFIVGLGGGSPIDSAKAISITAPNEGKFWDYVPVGGGKIPEKSIPVVAIPTTHGTGTEADPFAVITNPETKEKVGIGYRNTFPVLSLVDPEVMKTLPKDQTAYTSMDAFYHAIEAFLNVNANPYSDVLALDAMKRIVTYLPVAYENGEDMEARTNLAWASTEAGITETLTGVIANHALEHGLSGFYPEITHGLGLCITGPYLFEYIFDHAYERLAIVGREVFGVYETDDRKAGKLAIKKLRDFQEMFGLNKRLSELGVKEEDIPKMAETGYRILNGVVVVTPGNLTAKDMEEIFRRCY
notes: full-length from genomic DNA, start Met omitted in primer (vector-encoded N-terminal residues), C-terminal His-tag kept; E. coli JM109, pHsh; heat treatment, Ni column, anaerobic

Assays:
Aldh (CTN_1548) = target: T1, Aldh (CTN_1548); test: spectrophotometric NAD(P)H formation, […] nm; assay type: biochemical; details: 20 mM acetaldehyde, 1 mM NAD(P)+, no CoASH, 85 °C, various pH
purified protein = substrate: CC(=O)SCCNC(=O)CCNC(=O)[C@H](O)C(C)(C)COP(=O)(O)OP(=O)(O)OC[C@H]1O[C@@H](n2cnc3c(N)ncnc32)[C@H](O)[C@@H]1OP(=O)(O)O; test: purified protein; assay type: biochemical, Thermotoga neapolitana; details: 0.25 mM NADPH, pH 6.5, 80 °C, reduction to acetaldehyde

Molecule | spectrophotometric NAD(P)H formation, 340 nm (Aldh (CTN_1548)) | Km (purified protein) [µM]
NC(=O)c1ccc[n+]([C@@H]2O[C@H](COP(=O)(O)OP(=O)(O)OC[C@H]3O[C@@H](n4cnc5c(N)ncnc54)[C@H](O)[C@@H]3O)[C@@H](O)[C@H]2O)c1 [NAD^+] | catalyzed the oxidation of aldehydes to acetic acid using either NAD^+ or NADP^+ as coenzyme | 
CC=O [ac-ald] | exhibited only CoA-independent activity that oxidizes ac-ald to acetic acid | 
B1 |  | 1750
